Assay: xn = mol fraction of the nth substance listed
Details: 100 kPa

## CCCC[n+]1ccn(C)c1.COS(=O)(=O)[O-] + CCCC#N
298.15 K, x1 = 1
  speed of sound: 1654.9 m/s
308.15 K, x1 = 1
  speed of sound: 1630.2 m/s
313.15 K, x1 = 1
  speed of sound: 1618.2 m/s

## CCCC#N + CCCC[n+]1ccn(C)c1.COS(=O)(=O)[O-]
298.15 K, x2 = 0
  speed of sound: 1279.9 m/s
298.15 K, x2 = 0.2128
  speed of sound: 1395.9 m/s
298.15 K, x2 = 0.3714
  speed of sound: 1468.7 m/s
298.15 K, x2 = 0.4263
  speed of sound: 1490.6 m/s
298.15 K, x2 = 0.5115
  speed of sound: 1521.4 m/s
298.15 K, x2 = 0.6345
  speed of sound: 1559.7 m/s
298.15 K, x2 = 0.8065
  speed of sound: 1605.3 m/s
298.15 K, x2 = 0.9072
  speed of sound: 1630.9 m/s
303.15 K, x2 = 0
  speed of sound: 1260.6 m/s
303.15 K, x2 = 0.1117
  speed of sound: 1323.5 m/s
303.15 K, x2 = 0.2128
  speed of sound: 1378.9 m/s
303.15 K, x2 = 0.3714
  speed of sound: 1452.9 m/s
303.15 K, x2 = 0.4263
  speed of sound: 1475.5 m/s
303.15 K, x2 = 0.6345
  speed of sound: 1545.8 m/s
303.15 K, x2 = 0.7161
  speed of sound: 1568.8 m/s
303.15 K, x2 = 0.9072
  speed of sound: 1618.2 m/s
308.15 K, x2 = 0
  speed of sound: 1241 m/s
308.15 K, x2 = 0.1117
  speed of sound: 1305.2 m/s
308.15 K, x2 = 0.2128
  speed of sound: 1361.8 m/s
308.15 K, x2 = 0.3714
  speed of sound: 1437.1 m/s
308.15 K, x2 = 0.4263
  speed of sound: 1460.3 m/s
308.15 K, x2 = 0.6345
  speed of sound: 1531.9 m/s
308.15 K, x2 = 0.8065
  speed of sound: 1579.1 m/s
308.15 K, x2 = 0.9072
  speed of sound: 1605.5 m/s
313.15 K, x2 = 0
  speed of sound: 1221.2 m/s
313.15 K, x2 = 0.1117
  speed of sound: 1286.9 m/s
313.15 K, x2 = 0.2128
  speed of sound: 1344.7 m/s
313.15 K, x2 = 0.3714
  speed of sound: 1421.4 m/s
313.15 K, x2 = 0.5115
  speed of sound: 1477.3 m/s
313.15 K, x2 = 0.7161
  speed of sound: 1541.4 m/s
313.15 K, x2 = 0.8065
  speed of sound: 1566 m/s
313.15 K, x2 = 0.9072
  speed of sound: 1592.8 m/s

Reference: a compilation of properties of binary mixtures (doi:10.1016/j.molliq.2020.112507)
